The results in this text go back to ChEMBL document CHEMBL4311970 (Eur J Med Chem, 2019).

Molecules are shown by their SMILES. Activity calls are given as the source filed them. No cut-off for these calls is given here.

Test [1] is described as follows: Cytotoxicity against human NHBE cells assessed as reduction in cell viability incubated for 72 hrs by SRB assay. It is filed as cell-based.
Test [2] deals with MCF7. Description: Antiproliferative activity against human MCF7 cells assessed as reduction in cell viability incubated for 72 hrs by SRB assay. The following applies: MCF7, 72 h. Format: functional, cell-based.
The nature of test [3]: Antiproliferative activity against human KBVIN cells assessed as reduction in cell viability incubated for 72 hrs by SRB assay. Format: functional, cell-based.
The test system of test [4] is KB. Description: Antiproliferative activity against human KB cells assessed as reduction in cell viability incubated for 72 hrs by SRB assay. Format: functional, cell-based.
The test system of test [5] is MDA-MB-231. Description: Antiproliferative activity against human MDA-MB-231 cells assessed as reduction in cell viability incubated for 72 hrs by SRB assay. The following applies: MDA-MB-231, 72 h. Format: functional, cell-based.
Test [6] relates to A549. Description: Antiproliferative activity against human A549 cells assessed as reduction in cell viability incubated for 72 hrs by SRB assay. The following applies: A549, 72 h. It is filed as functional, cell-based.
Test [7] is filed under the species Homo sapiens. Description: Selectivity index, ratio of IC50 for recombinant human Cdc25A to IC50 for recombinant human Cdc25C.
For test [8], the species on record is Homo sapiens. Description: Selectivity index, ratio of IC50 for recombinant human Cdc25B to IC50 for recombinant human Cdc25C.
Test [9] deals with T1, M-phase inducer phosphatase 3 (Homo sapiens) (UniProt P30307).
T1 sequence (whole entry): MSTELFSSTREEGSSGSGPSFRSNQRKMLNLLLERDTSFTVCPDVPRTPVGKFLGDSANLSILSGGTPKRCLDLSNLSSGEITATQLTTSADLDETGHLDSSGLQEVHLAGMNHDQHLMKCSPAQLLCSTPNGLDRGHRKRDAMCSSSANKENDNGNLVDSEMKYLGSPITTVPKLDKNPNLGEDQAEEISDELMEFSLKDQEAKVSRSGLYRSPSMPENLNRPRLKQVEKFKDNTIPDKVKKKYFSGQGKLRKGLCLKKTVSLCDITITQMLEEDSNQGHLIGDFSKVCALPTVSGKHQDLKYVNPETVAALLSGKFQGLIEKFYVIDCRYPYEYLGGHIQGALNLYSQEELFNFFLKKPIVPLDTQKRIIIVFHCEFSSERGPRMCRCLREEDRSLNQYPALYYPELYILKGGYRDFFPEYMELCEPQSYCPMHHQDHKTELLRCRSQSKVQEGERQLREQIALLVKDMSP
Description: Potency index, ratio of IC50 of NSC663284 to IC50 of compound for inhibition of recombinant human Cdc25C using OMFP as substrate preincubated for 5 to 8 mins and measured every 5 mins 60 mins by fluorescence based assay.

The target in test [10] is T2, M-phase inducer phosphatase 3 (Homo sapiens, UniProt P30307).
T2 sequence (P30307 whole entry): T1 sequence (whole entry)
Description: Inhibition of recombinant human Cdc25C using OMFP as substrate preincubated for 5 to 8 mins and measured every 5 mins 60 mins by fluorescence based assay.

The target in test [11] is T3, M-phase inducer phosphatase 2 (Homo sapiens, UniProt P30305).
T3 sequence (P30305 whole entry): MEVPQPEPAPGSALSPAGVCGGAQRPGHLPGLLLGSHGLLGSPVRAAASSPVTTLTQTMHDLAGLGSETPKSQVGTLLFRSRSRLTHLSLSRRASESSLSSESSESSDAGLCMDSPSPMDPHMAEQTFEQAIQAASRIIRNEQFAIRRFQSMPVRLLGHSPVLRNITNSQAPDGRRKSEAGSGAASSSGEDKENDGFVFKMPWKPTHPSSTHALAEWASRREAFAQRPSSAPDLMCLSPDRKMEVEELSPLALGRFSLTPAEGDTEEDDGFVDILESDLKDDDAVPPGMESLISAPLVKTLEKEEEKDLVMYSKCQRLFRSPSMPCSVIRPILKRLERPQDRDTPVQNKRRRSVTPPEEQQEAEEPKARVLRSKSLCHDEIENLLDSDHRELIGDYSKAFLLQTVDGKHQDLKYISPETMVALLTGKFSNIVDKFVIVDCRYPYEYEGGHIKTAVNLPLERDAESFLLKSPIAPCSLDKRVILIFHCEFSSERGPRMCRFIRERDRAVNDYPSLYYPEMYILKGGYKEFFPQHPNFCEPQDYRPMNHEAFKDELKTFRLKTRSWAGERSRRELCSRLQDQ
Description: Inhibition of recombinant human Cdc25B using OMFP as substrate preincubated for 5 to 8 mins and measured every 5 mins 60 mins by fluorescence based assay.

For test [12], the target named is T4, M-phase inducer phosphatase 1 (Homo sapiens, UniProt P30304).
T4 sequence (P30304 whole entry): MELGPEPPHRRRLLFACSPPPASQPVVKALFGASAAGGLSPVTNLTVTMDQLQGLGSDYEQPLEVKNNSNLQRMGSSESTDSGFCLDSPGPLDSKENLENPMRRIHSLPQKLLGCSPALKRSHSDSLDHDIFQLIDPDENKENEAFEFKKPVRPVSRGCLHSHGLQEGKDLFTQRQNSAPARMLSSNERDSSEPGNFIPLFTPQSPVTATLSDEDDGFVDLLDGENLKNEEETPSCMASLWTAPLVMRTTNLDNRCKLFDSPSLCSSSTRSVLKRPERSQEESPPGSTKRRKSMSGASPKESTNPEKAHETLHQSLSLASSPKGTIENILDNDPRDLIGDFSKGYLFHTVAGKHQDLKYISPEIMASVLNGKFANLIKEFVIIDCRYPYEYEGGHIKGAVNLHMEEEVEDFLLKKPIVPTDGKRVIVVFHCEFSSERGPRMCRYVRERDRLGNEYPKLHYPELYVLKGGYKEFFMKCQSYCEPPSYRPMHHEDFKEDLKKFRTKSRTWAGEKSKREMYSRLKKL
Description: Inhibition of recombinant human Cdc25A using OMFP as substrate preincubated for 5 to 8 mins and measured every 5 mins 60 mins by fluorescence based assay.

Test [13] has as its target T1, M-phase inducer phosphatase 3 (Homo sapiens). Description: Inhibition of recombinant human Cdc25C at 10 uM using OMFP as substrate preincubated for 5 to 8 mins and measured every 5 mins 60 mins by fluorescence based assay.
The target of test [14] is T5, M-phase inducer phosphatase 2 (Homo sapiens) (UniProt P30305).
T5 sequence (whole entry): T3 sequence (P30305 whole entry)
Description: Inhibition of recombinant human Cdc25B at 10 uM using OMFP as substrate preincubated for 5 to 8 mins and measured every 5 mins 60 mins by fluorescence based assay.

The target of test [15] is T6, M-phase inducer phosphatase 1 (Homo sapiens) (UniProt P30304).
T6 sequence (whole entry): T4 sequence (P30304 whole entry)
Description: Inhibition of recombinant human Cdc25A at 10 uM using OMFP as substrate preincubated for 5 to 8 mins and measured every 5 mins 60 mins by fluorescence based assay relative to control.

`Cc1ccc(Cn2cc(CNC3=C(Cl)C(=O)c4cccnc4C3=O)nn2)cc1`: the half-maximal inhibitory concentration (IC50) was determined as 6 µM in test [1]; 4.71 µM in [2]; 6.81 µM in [3]; 5.05 µM in [4]; 4.63 µM in [5]; 3.92 µM in test [6]. In addition, the figures for the IC50 in [10], in test [11] and in [12] were 0.09 µM, 1.39 µM and 0.53 µM, respectively. The values for the Ratio IC50 in test [7], in test [8] and in test [9] were 6, 15 and 9, respectively. Further, the inhibition entry in test [13] and in test [14] was “Active” each time. Moreover, the inhibition in test [15] is 74.4%.
Consider `O=C1C(Cl)=C(NCCN2CCOCC2)C(=O)c2ncccc21`, for which the IC50 in [1] was determined as 3.31 µM; in test [2] it was 1 µM; in test [3] it was 4.87 µM; in [4], 4.89 µM; in test [5], 4.97 µM; in test [6] it was 2.76 µM. The inhibition result in test [13] and in test [14] was “Active” throughout. Further, the inhibition in test [15] was 48.4%.
As for `N#Cc1ccccc1Cn1cc(CNC2=C(Cl)C(=O)c3cccnc3C2=O)nn1`, the 50% inhibitory concentration (IC50) in test [1] amounted to 2.18 µM; in [2] it was 4.7 µM; in [3], 9.02 µM; in test [4], 5.13 µM; in [5], 4.86 µM; in test [6], 4.5 µM. Also, the IC50 is 0.42 µM in test [10], 2.79 µM in test [11] and 1.2 µM in test [12]. The inhibition entry in [13] and in test [14] was “Active” each time. For the same molecule, the inhibition in test [15] was found to be 57.2%.
For `CC(=O)O[C@H]1C(=O)[C@@]2(C)[C@H]([C@H](OC(=O)c3ccccc3)[C@]3(O)C[C@H](OC(=O)[C@H](O)[C@@H](NC(=O)c4ccccc4)c4ccccc4)C(C)=C1C3(C)C)[C@]1(OC(C)=O)CO[C@@H]1C[C@@H]2O` [PACLITAXEL], the IC50 in test [1] is 36.5 µM; in test [3] it was 3.15 µM; in test [6], 0.00752 µM.
On to `N#Cc1cccc(Cn2cc(CNC3=C(Cl)C(=O)c4cccnc4C3=O)nn2)c1`, for which the IC50 in test [1] came out at 6.43 µM; in test [2], 4.84 µM; in [3] it was 11.6 µM; in test [4], 5.01 µM; in test [5], 4.9 µM; in [6], 4.92 µM. The IC50 in test [10] amounted to 0.21 µM; in test [11], 1 µM; in [12] it was 0.54 µM. Besides, the inhibition entry in [13] and in test [14] was “Active” throughout. The inhibition in test [15] was 69.1%.
